Activity calls are given as the source filed them. The calls are words filed in the database; no cut-off is given here.
Assays:
Rattus norvegicus [1] = species: Rattus norvegicus; assay: Cytotoxicity against […] cells assessed as effect on cell number at 1 mM after 48 hrs by MTT assay; format: toxicity, cell-based; details: mc3t3-e1, 48 h, 1000 µM
[2] = Induction of Wnt/beta-catenin signaling pathway in […] cells assessed as protection against H2O2-induced oxidative stress in presence of Wnt/beta-catenin signaling pathway inhibitor XAV-939; format: cell-based
[3] = (§1) Induction of Wnt/beta-catenin signaling pathway in […] cells assessed as protection against H2O2-induced oxidative stress by measuring Runx2 activation at 0.5 to 2 mM pretreated with compound for 48 hrs followed by H2O2 treatment for 24 hrs by Western blot analysis; format: cell-based
[4] = Induction of Wnt/beta-catenin signaling pathway in […] cells assessed as protection against H2O2-induced oxidative stress by measuring increase in mineralization at 2 mM pretreated with compound for 48 hrs followed by H2O2 treatment for 24 hrs; format: cell-based
[5] = Induction of Wnt/beta-catenin signaling pathway in […] cells assessed as protection against H2O2-induced cell death at 0.5 to 2 mM pretreated with compound for 48 hrs followed by H2O2 treatment for 24 hrs by MTT assay; format: cell-based
[6] = Induction of Wnt/beta-catenin signaling pathway in […] cells assessed as protection against H2O2-induced oxidative stress by measuring increase in ALP activity at 0.5 to 2 mM pretreated with compound for 48 hrs followed by H2O2 treatment for 24 hrs; format: cell-based
[7] = Induction of Wnt/beta-catenin signaling pathway in […] cells assessed as protection against H2O2-induced oxidative stress by measuring increase in ALP activity at 2 mM pretreated with compound for 48 hrs followed by H2O2 treatment for 24 hrs; format: cell-based
MC3T3-E1 [8] = assay: Protection against H2O2-induced apoptosis in rat MC3T3-E1 cells assessed as inhibition of caspase 3 mRNA level pretreated with compound for 48 hrs followed by H2O2 treatment for 24 hrs by quantitative real-time PCR method; format: functional, cell-based
[9] = as §1, with “decrease in phosphorylated beta-catenin expression” for “Runx2 activation”, “1.5” for “0.5 to 2”; format: cell-based
[10] = as §1, with “decrease in phosphorylated beta-catenin expression” for “Runx2 activation”; format: cell-based
[11] = Induction of Wnt/beta-catenin signaling pathway in […] cells assessed as protection against H2O2-induced oxidative stress by measuring ALP activation at 0.5 to 2 mM pretreated with compound for 48 hrs followed by H2O2 treatment for 24 hrs by Western blot analysis; format: cell-based
MC3T3-E1 [12] = assay: Protection against H2O2-induced apoptosis in rat MC3T3-E1 cells assessed as decrease in nuclear fragmentation pretreated with compound for 48 hrs followed by H2O2 treatment for 24 hrs by DAPI staining based confocal laser scanning microscopy; format: functional, cell-based
[13] = Induction of Wnt/beta-catenin signaling pathway in […] cells assessed as protection against H2O2-induced cell death at 2 mM pretreated with compound for 48 hrs followed by H2O2 treatment for 24 hrs by MTT assay; format: cell-based
Rattus norvegicus [14] = species: Rattus norvegicus; assay: Cytotoxicity against […] cells assessed as effect on cell number at 2 mM after 48 hrs by MTT assay; format: toxicity, cell-based; details: mc3t3-e1, 48 h, 2000 µM
MC3T3-E1 [15] = assay: Protection against H2O2-induced apoptosis in rat MC3T3-E1 cells assessed as inhibition of caspase 3 activation using Ac-DEVD-pNA as substrate pretreated with compound for 48 hrs followed by H2O2 treatment for 24 hrs; format: functional, cell-based
[16] = (§2) Induction of Wnt/beta-catenin signaling pathway in […] cells assessed as protection against H2O2-induced oxidative stress by measuring increase in onc mRNA expression at 2 mM pretreated with compound for 48 hrs followed by H2O2 treatment for 24 hrs by immunofluorescence staining method; format: cell-based
Rattus norvegicus [17] = assay: Protection against OVX-induced oxidative stress in osteoporosis rat model assessed as decrease in H2O2 level in serum at 220 mg/kg/day after 3 months by colorimetric assay; format: functional, organism-based
[18] = Induction of Wnt/beta-catenin signaling pathway in […] cells assessed as protection against H2O2-induced oxidative stress by measuring increase in mineralization at 0.5 to 2 mM pretreated with compound for 48 hrs followed by H2O2 treatment for 24 hrs; format: cell-based
[19] = as §2, with “expression at 0.5 to 2 mM” for “expression at 2 mM”; format: cell-based
[20] = Induction of Wnt/beta-catenin signaling pathway in […] cells assessed as protection against H2O2-induced oxidative stress by measuring OPG activation at 0.5 to 2 mM pretreated with compound for 48 hrs followed by H2O2 treatment for 24 hrs by Western blot analysis; format: cell-based
MC3T3-E1 [21] = assay: Increase in cell viability of […] cells at 1 mM after 48 hrs by MTT assay; format: functional, cell-based
Rattus norvegicus [22] = assay: Protection against OVX-induced oxidative stress in osteoporosis rat model assessed as […] level in serum at 220 mg/kg/day after 3 months by colorimetric assay; format: functional, organism-based
Rattus norvegicus [23] = assay: Protection against OVX-induced osteoporosis in osteoporosis rat model assessed as increase in bone mineral density of femur at 220 mg/kg/day after 3 months by dual X-ray absorptiometry; format: functional, organism-based
MC3T3-E1 [24] = assay: Protection against H2O2-induced apoptosis in […] cells assessed as decrease in nuclear condensation pretreated with compound for 48 hrs followed by H2O2 treatment for 24 hrs by DAPI staining based confocal laser scanning microscopy; format: functional, cell-based

CC(=O)N[C@@H](CS)C(=O)O [ACETYLCYSTEINE]
Activity (Rattus norvegicus [1]): Non-Toxic

O.O.O.O.O.O.O.O.O=P([O-])([O-])OCC1(O)O[C@H](COP(=O)([O-])O)[C@@H](O)[C@@H]1O.[Na+].[Na+].[Na+] (some centres undefined) [FOSFRUCTOSE TRISODIUM]
Activity [2]: Active | Activity [3]: Active | Activity [4]: Active | Activity [5]: Active | Activity [6]: Active | Activity [7]: Active | Activity (MC3T3-E1 [8]): Active | Activity [9]: Active | Activity [10]: Active | Activity [11]: Active | Activity (MC3T3-E1 [12]): Active | Activity [13]: Active | Activity (Rattus norvegicus [14]): Non-Toxic | Activity (MC3T3-E1 [15]): Active | Activity [16]: Active | Activity (Rattus norvegicus [17]): Active | Activity [18]: Active | Activity [19]: Active | Activity [20]: Active | Activity (MC3T3-E1 [21]): Active | Activity (Rattus norvegicus [22]): Active | Activity (Rattus norvegicus [23]): Active | Activity (MC3T3-E1 [24]): Active
